Results from ChEMBL document CHEMBL1201862, “PubChem BioAssay data set” (2004).
The source made the active and inactive calls.

How the values were obtained:
[1] = target: T1, Protein RecA (Mycobacterium tuberculosis, UniProt P9WHJ3); assay: Fluorescence Cell-Free Homogeneous Dose Retest to Identify Inhibitors of RecA-Intein Splicing Activity. [Related pubchem assays (depositor defined):AID2097, AID2223, AID489010, AID492950]; assay type: functional
T1 sequence (P9WHJ3 whole entry): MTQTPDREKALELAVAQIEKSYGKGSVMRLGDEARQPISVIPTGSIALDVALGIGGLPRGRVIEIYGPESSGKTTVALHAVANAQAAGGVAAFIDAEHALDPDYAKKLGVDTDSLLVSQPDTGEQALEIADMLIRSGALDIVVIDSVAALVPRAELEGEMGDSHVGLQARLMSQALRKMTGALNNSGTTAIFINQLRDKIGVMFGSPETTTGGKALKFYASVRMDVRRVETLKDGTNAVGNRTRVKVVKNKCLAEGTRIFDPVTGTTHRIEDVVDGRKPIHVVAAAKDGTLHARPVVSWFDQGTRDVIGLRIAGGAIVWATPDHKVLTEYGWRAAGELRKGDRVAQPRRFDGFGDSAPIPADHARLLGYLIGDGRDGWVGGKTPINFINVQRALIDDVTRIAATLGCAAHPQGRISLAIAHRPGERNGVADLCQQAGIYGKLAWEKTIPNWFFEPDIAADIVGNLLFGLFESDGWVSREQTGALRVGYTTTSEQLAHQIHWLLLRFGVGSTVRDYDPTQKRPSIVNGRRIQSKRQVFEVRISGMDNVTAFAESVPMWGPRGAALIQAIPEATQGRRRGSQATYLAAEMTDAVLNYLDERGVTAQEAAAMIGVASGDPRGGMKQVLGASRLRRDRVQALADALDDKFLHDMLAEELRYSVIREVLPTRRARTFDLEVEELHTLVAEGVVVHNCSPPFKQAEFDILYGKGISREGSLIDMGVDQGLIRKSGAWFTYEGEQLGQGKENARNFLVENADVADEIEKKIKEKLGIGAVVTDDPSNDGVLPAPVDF

[2] = target: T2, Streptokinase A (Streptococcus pyogenes serotype M1, UniProt P10520); assay: viability-normalized secreted streptokinase activity reduction – plasminogen activation absorbance, OD405, dose response (AID 1914); assay type: functional, Streptococcus pyogenes M1 GAS;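 note: secreted streptokinase activity via plasminogen activation per viability signal from cell pellet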
T2 sequence (P10520 whole entry): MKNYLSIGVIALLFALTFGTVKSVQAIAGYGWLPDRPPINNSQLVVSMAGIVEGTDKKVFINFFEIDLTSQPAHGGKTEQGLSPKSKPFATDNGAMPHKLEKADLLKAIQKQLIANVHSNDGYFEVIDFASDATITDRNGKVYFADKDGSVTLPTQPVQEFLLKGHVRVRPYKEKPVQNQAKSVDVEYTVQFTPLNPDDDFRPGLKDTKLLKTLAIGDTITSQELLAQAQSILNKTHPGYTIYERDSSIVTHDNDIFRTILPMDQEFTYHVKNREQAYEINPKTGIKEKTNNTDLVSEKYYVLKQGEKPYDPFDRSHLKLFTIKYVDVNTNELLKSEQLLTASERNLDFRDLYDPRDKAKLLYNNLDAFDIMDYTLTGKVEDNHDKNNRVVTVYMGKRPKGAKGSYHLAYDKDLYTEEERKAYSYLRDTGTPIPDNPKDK

[3] = tested on: Streptococcus; assay: GAS UMAA2166 growth inhibition – luminescence, BacTiterGlo, counter-screen for streptokinase expression inhibitor project, dose response (AID 1915); assay type: functional, organism-based;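 note: potency for reduction of bacterial viability or growth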
[4] = tested on: Streptococcus sp. 'group A'; assay: Streptococcus pyogenes SK(-)GAS viability under kanamycin – luminescence, BacTiterGlo, confirmation, counter-screen for streptokinase expression inhibitor project, dose response (AID 1900); assay type: functional, organism-based
[5] = target: Serine/threonine-protein kinase N2 (Homo sapiens, UniProt Q16513); assay type: functional
[6] = target: Protein kinase C iota type (Homo sapiens, UniProt P41743); assay type: functional;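 note: measured within a kinome-wide kinase panel, PRKCI as panel member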
[7] = target: Interleukin-1 receptor-associated kinase 4 (Homo sapiens, UniProt Q9NWZ3); assay type: functional
[8] = target: STE20-like serine/threonine-protein kinase (Homo sapiens, UniProt Q9H2G2); assay type: functional
[9] = target: Serine/threonine-protein kinase Nek4 (Homo sapiens, UniProt P51957); assay type: functional
[10] = target: Rho-associated protein kinase 2 (Homo sapiens, UniProt O75116); assay type: functional
Sequence of Rho-associated protein kinase 2 (O75116 whole entry, canonical isoform): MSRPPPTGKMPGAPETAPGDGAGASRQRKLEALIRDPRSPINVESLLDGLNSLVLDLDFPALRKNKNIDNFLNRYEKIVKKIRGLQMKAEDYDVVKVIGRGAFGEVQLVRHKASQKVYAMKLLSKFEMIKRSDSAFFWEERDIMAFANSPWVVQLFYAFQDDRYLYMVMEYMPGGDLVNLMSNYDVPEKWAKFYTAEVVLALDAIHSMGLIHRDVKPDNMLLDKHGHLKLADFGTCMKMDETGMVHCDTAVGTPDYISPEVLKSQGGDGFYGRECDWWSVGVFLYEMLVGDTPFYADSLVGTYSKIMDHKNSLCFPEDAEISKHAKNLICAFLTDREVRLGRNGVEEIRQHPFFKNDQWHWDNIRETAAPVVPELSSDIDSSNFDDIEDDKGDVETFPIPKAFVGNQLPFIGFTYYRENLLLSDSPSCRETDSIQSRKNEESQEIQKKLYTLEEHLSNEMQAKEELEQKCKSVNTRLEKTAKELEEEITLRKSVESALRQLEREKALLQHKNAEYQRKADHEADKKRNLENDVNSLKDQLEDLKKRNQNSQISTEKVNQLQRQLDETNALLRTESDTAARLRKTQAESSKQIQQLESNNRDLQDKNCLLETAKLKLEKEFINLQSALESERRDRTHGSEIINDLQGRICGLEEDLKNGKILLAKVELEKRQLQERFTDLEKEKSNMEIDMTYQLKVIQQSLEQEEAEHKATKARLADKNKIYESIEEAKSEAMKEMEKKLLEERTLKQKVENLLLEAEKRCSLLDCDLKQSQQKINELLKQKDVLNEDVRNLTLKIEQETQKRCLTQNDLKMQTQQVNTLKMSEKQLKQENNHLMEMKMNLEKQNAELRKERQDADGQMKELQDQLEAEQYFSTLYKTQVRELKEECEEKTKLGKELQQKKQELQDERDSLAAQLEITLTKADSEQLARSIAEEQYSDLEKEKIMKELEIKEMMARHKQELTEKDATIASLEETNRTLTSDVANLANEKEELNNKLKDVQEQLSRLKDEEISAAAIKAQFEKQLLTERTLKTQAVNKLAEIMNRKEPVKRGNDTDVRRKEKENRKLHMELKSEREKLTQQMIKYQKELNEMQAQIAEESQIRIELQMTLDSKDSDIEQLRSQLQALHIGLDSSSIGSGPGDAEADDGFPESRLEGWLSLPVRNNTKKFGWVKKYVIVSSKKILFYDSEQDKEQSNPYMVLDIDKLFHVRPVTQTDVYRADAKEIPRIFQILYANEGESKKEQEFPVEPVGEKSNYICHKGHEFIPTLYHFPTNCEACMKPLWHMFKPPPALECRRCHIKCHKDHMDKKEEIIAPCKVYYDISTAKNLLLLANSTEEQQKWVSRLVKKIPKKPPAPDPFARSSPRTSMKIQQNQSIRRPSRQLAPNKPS

[11] = target: Phosphorylase b kinase gamma catalytic chain, liver/testis isoform (Homo sapiens, UniProt P15735); assay type: functional;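 note: PHKG2 measured as one member of a kinome-wide kinase panel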
[12] = target: Testis-specific serine/threonine-protein kinase 1 (Homo sapiens, UniProt Q9BXA7); assay type: functional
[13] = target: Serine/threonine-protein kinase BRSK1 (Homo sapiens, UniProt Q8TDC3); assay type: functional;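 note: measured within a kinome-wide kinase panel, with the target listed as KIAA1811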
[14] = target: Casein kinase I isoform delta (Homo sapiens, UniProt P48730); assay type: functional;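 note: measured as one member (CSNK1D) of a kinome panel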
Sequence of Casein kinase I isoform delta (P48730 whole entry, canonical isoform): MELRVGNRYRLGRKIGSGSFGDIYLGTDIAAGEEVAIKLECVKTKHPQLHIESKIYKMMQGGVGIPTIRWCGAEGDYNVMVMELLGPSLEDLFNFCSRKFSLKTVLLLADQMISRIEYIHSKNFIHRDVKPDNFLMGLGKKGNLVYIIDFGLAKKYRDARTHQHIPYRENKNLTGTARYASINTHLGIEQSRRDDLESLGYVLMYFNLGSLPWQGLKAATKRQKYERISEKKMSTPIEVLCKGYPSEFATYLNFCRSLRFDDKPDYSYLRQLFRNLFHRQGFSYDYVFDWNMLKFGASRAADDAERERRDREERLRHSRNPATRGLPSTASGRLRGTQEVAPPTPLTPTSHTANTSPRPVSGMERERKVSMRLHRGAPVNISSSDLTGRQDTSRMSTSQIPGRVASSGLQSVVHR

[15] = target: Serine/threonine-protein kinase pim-3 (Homo sapiens, UniProt Q86V86); assay type: functional;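 note: value obtained as one member of a broad kinase panel profiling effort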
[16] = target: Serine/threonine-protein kinase pim-2 (Homo sapiens, UniProt Q9P1W9); assay type: functional;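 note: value comes from a broad kinase panel profiling study in which PIM2 was one of the panel members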
[17] = target: Tyrosine-protein kinase Srms (Homo sapiens, UniProt Q9H3Y6); assay type: functional;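 note: SRMS measured as one member of a kinome-wide kinase profiling panel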
[18] = target: Insulin receptor (Homo sapiens, UniProt P06213); assay type: functional;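 note: insulin receptor kinase tested as one member of a kinome-wide kinase panel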
Sequence of Insulin receptor (P06213 28-758 limits assumed): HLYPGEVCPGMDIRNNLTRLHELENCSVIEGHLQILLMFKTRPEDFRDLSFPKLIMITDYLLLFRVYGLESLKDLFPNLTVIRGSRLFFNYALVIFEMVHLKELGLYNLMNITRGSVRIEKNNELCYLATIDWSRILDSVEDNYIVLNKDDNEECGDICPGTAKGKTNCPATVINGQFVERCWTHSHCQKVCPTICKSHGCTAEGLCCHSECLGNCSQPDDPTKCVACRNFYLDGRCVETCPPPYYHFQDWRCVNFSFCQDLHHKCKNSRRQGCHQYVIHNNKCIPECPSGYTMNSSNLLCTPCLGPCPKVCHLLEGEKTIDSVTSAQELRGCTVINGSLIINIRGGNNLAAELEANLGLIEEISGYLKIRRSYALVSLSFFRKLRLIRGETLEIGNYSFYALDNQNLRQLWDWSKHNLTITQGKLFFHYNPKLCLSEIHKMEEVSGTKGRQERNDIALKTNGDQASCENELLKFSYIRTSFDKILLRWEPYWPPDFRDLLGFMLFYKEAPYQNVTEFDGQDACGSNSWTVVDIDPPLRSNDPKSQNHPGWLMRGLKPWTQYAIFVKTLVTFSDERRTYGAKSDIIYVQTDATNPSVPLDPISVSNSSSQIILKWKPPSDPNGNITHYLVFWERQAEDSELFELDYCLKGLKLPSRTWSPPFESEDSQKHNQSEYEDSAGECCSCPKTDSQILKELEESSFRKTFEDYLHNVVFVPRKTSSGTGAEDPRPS
Sequence of Insulin receptor (P06213 763-1382 limits assumed): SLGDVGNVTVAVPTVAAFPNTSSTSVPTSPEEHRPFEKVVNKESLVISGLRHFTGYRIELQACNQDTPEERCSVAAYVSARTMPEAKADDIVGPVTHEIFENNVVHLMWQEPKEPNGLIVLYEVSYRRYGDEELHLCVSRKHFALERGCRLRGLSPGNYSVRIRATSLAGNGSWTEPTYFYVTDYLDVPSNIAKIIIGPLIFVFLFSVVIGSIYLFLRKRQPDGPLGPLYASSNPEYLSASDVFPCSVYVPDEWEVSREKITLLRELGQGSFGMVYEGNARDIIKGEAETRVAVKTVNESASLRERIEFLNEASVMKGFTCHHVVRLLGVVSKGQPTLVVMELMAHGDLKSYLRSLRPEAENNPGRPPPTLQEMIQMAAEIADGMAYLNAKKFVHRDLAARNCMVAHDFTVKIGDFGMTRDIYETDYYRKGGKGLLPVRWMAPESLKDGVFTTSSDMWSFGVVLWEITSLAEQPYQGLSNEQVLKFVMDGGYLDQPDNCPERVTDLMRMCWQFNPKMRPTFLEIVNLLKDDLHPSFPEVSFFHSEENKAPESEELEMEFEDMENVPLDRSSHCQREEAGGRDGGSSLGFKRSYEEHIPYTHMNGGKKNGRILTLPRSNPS

[19] = target: Tyrosine-protein kinase receptor UFO (Homo sapiens, UniProt P30530); assay type: functional
Sequence of Tyrosine-protein kinase receptor UFO (P30530 whole entry): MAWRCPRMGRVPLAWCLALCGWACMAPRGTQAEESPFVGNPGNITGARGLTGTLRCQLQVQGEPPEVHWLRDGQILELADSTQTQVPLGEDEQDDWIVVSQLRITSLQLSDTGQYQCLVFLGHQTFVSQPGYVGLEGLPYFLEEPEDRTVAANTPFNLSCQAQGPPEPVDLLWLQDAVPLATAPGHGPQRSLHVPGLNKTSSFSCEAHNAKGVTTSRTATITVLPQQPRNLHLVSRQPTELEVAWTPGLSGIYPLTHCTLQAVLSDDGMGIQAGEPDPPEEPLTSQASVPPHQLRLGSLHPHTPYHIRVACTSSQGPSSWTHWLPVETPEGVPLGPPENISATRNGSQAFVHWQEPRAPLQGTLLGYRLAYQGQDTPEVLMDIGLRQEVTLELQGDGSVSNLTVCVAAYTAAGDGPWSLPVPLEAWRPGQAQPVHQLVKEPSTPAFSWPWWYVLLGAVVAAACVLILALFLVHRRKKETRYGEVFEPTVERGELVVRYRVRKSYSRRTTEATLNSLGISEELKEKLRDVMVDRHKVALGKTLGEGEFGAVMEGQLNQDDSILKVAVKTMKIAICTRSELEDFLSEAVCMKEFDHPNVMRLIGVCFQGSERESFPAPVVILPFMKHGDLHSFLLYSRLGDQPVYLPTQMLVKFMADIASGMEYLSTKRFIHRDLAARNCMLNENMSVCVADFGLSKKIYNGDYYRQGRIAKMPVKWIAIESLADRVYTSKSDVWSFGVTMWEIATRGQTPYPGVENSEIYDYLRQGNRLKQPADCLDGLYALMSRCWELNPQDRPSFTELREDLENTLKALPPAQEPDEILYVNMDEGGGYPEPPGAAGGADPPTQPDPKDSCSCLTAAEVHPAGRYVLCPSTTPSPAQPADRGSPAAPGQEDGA

[20] = target: cGMP-dependent protein kinase 1 (Homo sapiens, UniProt Q13976); assay type: functional;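 note: value from a kinome panel screen with PRKG1 as the panel member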
[21] = target: MAP/microtubule affinity-regulating kinase 3 (Homo sapiens, UniProt P27448); assay type: functional;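 note: MARK3 affinity measured as one member of a kinome panel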
[22] = target: Homeodomain-interacting protein kinase 2 (Homo sapiens, UniProt Q9H2X6); assay type: functional;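 note: measured within a kinome-wide kinase profiling panel, HIPK2 being one panel member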
[23] = target: Tyrosine-protein kinase Lyn (Homo sapiens, UniProt P07948); assay type: functional;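 note: lyn as one member of a kinase panel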
Sequence of Tyrosine-protein kinase Lyn (P07948 whole entry): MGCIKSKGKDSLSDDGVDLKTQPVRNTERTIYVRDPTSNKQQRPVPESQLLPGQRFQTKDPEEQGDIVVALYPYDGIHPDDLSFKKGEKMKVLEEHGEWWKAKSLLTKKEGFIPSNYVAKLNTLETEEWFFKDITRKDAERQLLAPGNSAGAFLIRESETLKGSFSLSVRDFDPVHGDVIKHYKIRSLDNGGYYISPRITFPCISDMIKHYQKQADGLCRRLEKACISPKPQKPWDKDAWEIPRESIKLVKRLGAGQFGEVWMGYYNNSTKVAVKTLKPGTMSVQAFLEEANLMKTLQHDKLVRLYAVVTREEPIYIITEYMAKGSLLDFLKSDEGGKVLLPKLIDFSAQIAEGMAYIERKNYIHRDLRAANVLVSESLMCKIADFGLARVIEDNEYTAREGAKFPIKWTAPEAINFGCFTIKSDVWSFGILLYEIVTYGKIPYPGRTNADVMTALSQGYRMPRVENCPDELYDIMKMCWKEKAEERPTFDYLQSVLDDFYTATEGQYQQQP

[24] = target: Calcium/calmodulin-dependent protein kinase type II subunit delta (Homo sapiens, UniProt Q13557); assay type: functional
Sequence of Calcium/calmodulin-dependent protein kinase type II subunit delta (Q13557 whole entry): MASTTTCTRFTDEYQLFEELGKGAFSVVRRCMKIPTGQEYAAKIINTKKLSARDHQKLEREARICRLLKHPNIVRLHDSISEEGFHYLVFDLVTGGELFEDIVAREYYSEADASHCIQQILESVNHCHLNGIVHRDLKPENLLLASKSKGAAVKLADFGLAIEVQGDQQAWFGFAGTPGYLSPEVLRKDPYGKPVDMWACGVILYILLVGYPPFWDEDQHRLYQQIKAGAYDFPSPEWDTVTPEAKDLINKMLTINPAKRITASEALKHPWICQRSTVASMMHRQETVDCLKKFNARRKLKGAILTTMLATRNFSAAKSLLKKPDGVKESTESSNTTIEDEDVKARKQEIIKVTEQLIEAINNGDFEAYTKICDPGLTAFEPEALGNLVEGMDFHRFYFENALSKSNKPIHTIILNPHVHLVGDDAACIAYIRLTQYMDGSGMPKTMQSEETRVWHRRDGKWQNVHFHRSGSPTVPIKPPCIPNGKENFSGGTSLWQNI

SMILES: Cc1ccc(NC2=C(NCCO)C(=O)c3ccccc3C2=O)cc1
- EC50 [1]: 11.7 µM (active)

SMILES: CC(/C=C1\SC(=S)N(NS(=O)(=O)c2ccc(C)cc2)C1=O)=C\c1ccccc1
- EC50 [2]: > 150 µM (not active)
- EC50 [3]: 8.34 µM (active)
- EC50 [4]: 1.41 µM (active)

SMILES: CN1CCC(c2c(O)cc(O)c3c(=O)cc(-c4ccccc4Cl)oc23)C(O)C1 (stereo unspecified)
- Ki [5]: 5.01 µM (active)
- Ki [6]: > 5.01 µM (inactive)
- Ki [7]: 5.01 µM (active)
- Ki [8]: > 10 µM (inactive)
- Ki [9]: > 6.31 µM (inactive)
- Ki [10]: > 6.31 µM (inactive)
- Ki [11]: > 5.01 µM (inactive)
- Ki [12]: > 1.58 µM (inactive)
- Ki [13]: > 10 µM (inactive)
- Ki [14]: > 7.94 µM (inactive)
- Ki [15]: 1.26 µM (active)
- Ki [16]: 1 µM (active)
- Ki [17]: > 1.58 µM (inactive)
- Ki [18]: > 5.01 µM (inactive)
- Ki [19]: 1 µM (active)
- pKi [19]: 6
- Ki [20]: > 2 µM (inactive)
- Ki [21]: > 6.31 µM (inactive)
- Ki [22]: > 3.98 µM (inactive)
- Ki [23]: > 1.58 µM (inactive)
- Ki [24]: 2 µM (active)
- pKi [24]: 5.7
